Read-outs that look alike come from different tables or passages of the source.
Experiments:
[1] = tested on: K562 (chronic myelogenous leukaemia); assay: Effect of compounds on tumor cell lines (assay of Latham et al.), K562; type: cell-based; details: K562 cells, read-out: K 562 potency (IC50)
Procedure: (§1) The effect of the compounds of the invention on tumor cells was determined by the assay described by Latham et al., Oncogene 12:827-837 (1996). Tumor cells K562 (chronic myelogenous leukaemia) or DU145 (prostate cancer) were plated in 12-well dishes at a cell density of 2.5×10^4 cells well. The plated cells were treated 24 hours later with a compound of the invention dissolved in DMSO at multiple concentrations ranging from 1 μM to 100 μM. The plates were examined 96 hours later under an inverted microscope, Olympus CK-2 using an 10× objective, and compound activity was noted by physical observation. When necessary, the total number of viable cells was determined by trypsinizing the wells and counting the number of viable cells, as determined by trypan blue exclusion, using a hemacytometer.
(§2) The representative compounds listed in Tables 1-5 are shown by way of illustration, and are not intended to limit the scope of the invention. The compounds are prepared and tested by methods based on those described above, except that the compound of Table 5 was dissolved in DMSO at multiple concentrations ranging from 0.1 μM to 100 μM

DU145 (prostate cancer) = assay: Effect of compounds on tumor cell lines (assay of Latham et al.), DU145; type: cell-based; details: DU145 cells, read-out: DU 145 potency (IC50)
Procedure: as §1, §2

[2] = Table 1, examined 96 hours after treatment, 1 μM to 100 μM in DMSO
[3] = 96 hours after treatment, 1 μM to 100 μM

Work on `Cc1ccc(SC(=Cc2ccc(Oc3ccccc3)cc2)C(=O)c2ccc(Br)cc2)cc1` [Example 103] yielded an IC50 [1, 2] of 10 to 25 µM and an IC50 (DU145 (prostate cancer); [2]) of 1 to 10 µM.
Work on `Cc1ccc(SC(=Cc2ccc(Oc3ccccc3)cc2)C(=O)c2ccc(Cl)cc2)cc1` [Example 104] yielded an IC50 [1, 2] of 10 to 25 µM and an IC50 (DU145 (prostate cancer); [2]) of 10 to 25 µM.
Work on `Cc1ccc(SC(=Cc2c[nH]c3ccc(Br)cc23)C(=O)c2ccc(Br)cc2)cc1` [Example 105] yielded an IC50 [1, 2] of 10 to 25 µM and an IC50 (DU145 (prostate cancer); [2]) of 1 to 10 µM.
`Cc1ccc(SC(=Cc2c[nH]c3ccc(Br)cc23)C(=O)c2ccc(Cl)cc2)cc1` [Example 106] was tested, and the IC50 [1, 2] was 1 to 10 µM and the IC50 (DU145 (prostate cancer); [2]) was 1 to 10 µM.
`Cc1ccc(SC(=Cc2c[nH]c3ccc(Cl)cc23)C(=O)c2ccc(Br)cc2)cc1` [Example 107] showed an IC50 [1, 2] of 1 to 10 µM and an IC50 (DU145 (prostate cancer); [2]) of 1 to 10 µM.
In the case of `Cc1ccc(SC(=Cc2c[nH]c3ccc(Cl)cc23)C(=O)c2ccc(Cl)cc2)cc1` [Example 108], the IC50 [1, 2] is reported as 1 to 10 µM and the IC50 (DU145 (prostate cancer); [2]) is reported as 1 to 10 µM.
`Cc1ccc(SC(=Cc2ccc(C)s2)C(=O)c2ccc(Br)cc2)cc1` [Example 109] was tested, and the IC50 [1, 2] was 50 to 100 µM and the IC50 (DU145 (prostate cancer); [2]) was greater than 100 µM.
For `Cc1ccc(SC(=Cc2ccc(-c3ccccc3)cc2)C(=O)c2ccc(Br)cc2)cc1` [Example 110], the IC50 [1, 2] was 25 to 50 µM and the IC50 (DU145 (prostate cancer); [2]) was 50 to 100 µM.
`Cc1ccc(SC(=Cc2ccc(-c3ccccc3)cc2)C(=O)c2ccc(Cl)cc2)cc1` [Example 111] showed an IC50 [1, 2] of 25 to 50 µM and an IC50 (DU145 (prostate cancer); [2]) of 50 to 100 µM.
`O=C(O)c1ccc(C(=O)C(=Cc2ccc(F)c([N+](=O)[O-])c2)Sc2c(F)c(F)c(F)c(F)c2F)cc1` [Example 112] was tested, and the IC50 [1, 2] was no more than 1 µM and the IC50 (DU145 (prostate cancer); [2]) was 1 to 10 µM.
Compound `Cc1ccc(SC(=Cc2ccc(F)c([N+](=O)[O-])c2)C(=O)c2ccc(Br)cc2)cc1` [Example 113] has an IC50 [1, 2] of 1 to 10 µM and an IC50 (DU145 (prostate cancer); [2]) of 1 to 10 µM.
Compound `O=C(C(=Cc1cccc(Cl)c1Cl)SCc1ccc(Cl)cc1Cl)c1ccc(Cl)cc1` [Example 114] has an IC50 [1, 3] of 1 to 10 µM and an IC50 (DU145 (prostate cancer); [3]) of 1 to 10 µM.
`O=C(C(=Cc1c(O)cc(O)cc1O)SCc1ccc(Cl)cc1Cl)c1ccc(Cl)cc1` [Example 115] was tested, and the IC50 [1, 3] was greater than 100 µM and the IC50 (DU145 (prostate cancer); [3]) was 25 to 50 µM.
For `COc1cc(OC)c(C=C(SCc2ccc(Cl)cc2Cl)C(=O)c2ccc(Cl)cc2)c(OC)c1` [Example 116], the IC50 [1, 3] was 25 to 50 µM and the IC50 (DU145 (prostate cancer); [3]) was 1 to 10 µM.
With `CCOc1cc(C=C(SCc2ccc(Cl)cc2Cl)C(=O)c2ccc(Cl)cc2)ccc1O` [Example 117] the IC50 [1, 3] was 1 to 10 µM and the IC50 (DU145 (prostate cancer); [3]) was 10 to 25 µM.
For `O=C(C(=Cc1c[nH]c2ccccc12)SCc1ccc(Cl)cc1Cl)c1ccc(Cl)cc1` [Example 118], the IC50 [1, 3] was 10 to 25 µM and the IC50 (DU145 (prostate cancer); [3]) was 10 to 25 µM.
For `Cc1ccsc1C=C(SCc1ccc(Cl)cc1Cl)C(=O)c1ccc(Cl)cc1` [Example 119], the IC50 [1, 3] was 50 to 100 µM and the IC50 (DU145 (prostate cancer); [3]) was 10 to 25 µM.
For `CN(C)c1ccc(C=C(SCc2ccc(Cl)cc2Cl)C(=O)c2ccc(Cl)cc2)cc1` [Example 120], the IC50 [1, 3] was greater than 100 µM and the IC50 (DU145 (prostate cancer); [3]) was 50 to 100 µM.
Compound `O=C(C(=Cc1ccc(OCc2ccccc2)cc1)SCc1ccc(Cl)cc1Cl)c1ccc(Cl)cc1` [Example 121] has an IC50 [1, 3] of 10 to 25 µM and an IC50 (DU145 (prostate cancer); [3]) of 1 to 10 µM.
`O=C(C(=Cc1ccc(Cl)cc1)SCc1ccc(Cl)cc1Cl)c1ccc(Cl)cc1` [Example 122] gave an IC50 [1, 3] of 1 to 10 µM and an IC50 (DU145 (prostate cancer); [3]) of 10 to 25 µM.
For `O=C(C(=Cc1c[nH]c2ccc(Br)cc12)SCc1ccc(Cl)cc1Cl)c1ccc(Cl)cc1` [Example 123], the IC50 [1, 3] was 1 to 10 µM and the IC50 (DU145 (prostate cancer); [3]) was 10 to 25 µM.
For `Cc1ccc(C=C(SCc2ccc(Cl)cc2Cl)C(=O)c2ccc(Cl)cc2)s1` [Example 124], the IC50 [1, 3] was 50 to 100 µM and the IC50 (DU145 (prostate cancer); [3]) was 50 to 100 µM.
`COc1ccc(C=C(SCc2ccccc2Cl)C(=O)c2ccc(Cl)cc2)c(OC)c1OC` [Example 125] showed an IC50 [1, 3] of 1 to 10 µM and an IC50 (DU145 (prostate cancer); [3]) of 10 to 25 µM.
In the case of `COc1cc(OC)c(C=C(SCc2ccccc2Cl)C(=O)c2ccc(Cl)cc2)c(OC)c1` [Example 126], the IC50 [1, 3] is reported as 10 to 25 µM and the IC50 (DU145 (prostate cancer); [3]) is reported as 50 to 100 µM.
Compound `CN(C)c1ccc(C=C(SCc2ccccc2Cl)C(=O)c2ccc(Cl)cc2)cc1` [Example 127] has an IC50 [1, 3] of 50 to 100 µM and an IC50 (DU145 (prostate cancer); [3]) greater than 100 µM.
With `O=C(C(=Cc1ccc(OCc2ccccc2)cc1)SCc1ccccc1Cl)c1ccccc1Cl` [Example 128] the IC50 [1, 3] was 1 to 10 µM and the IC50 (DU145 (prostate cancer); [3]) was 1 to 10 µM.
`O=C(C(=Cc1ccc(Br)cc1)SCc1ccccc1Cl)c1ccc(Cl)cc1` [Example 129] was tested, and the IC50 [1, 3] was 1 to 10 µM and the IC50 (DU145 (prostate cancer); [3]) was 10 to 25 µM.
`O=C(C(=Cc1ccc(Cl)cc1)SCc1ccccc1Cl)c1ccc(Cl)cc1` [Example 130] gave an IC50 [1, 3] of 1 to 10 µM and an IC50 (DU145 (prostate cancer); [3]) of 10 to 25 µM.
`CCOc1ccc(C=C(SCc2ccccc2Cl)C(=O)c2ccc(Cl)cc2)cc1OC` [Example 131] showed an IC50 [1, 3] of 1 to 10 µM and an IC50 (DU145 (prostate cancer); [3]) of 50 to 100 µM.
Work on `O=C(C(=Cc1ccc(O)c([N+](=O)[O-])c1)SCc1ccccc1Cl)c1ccc(Cl)cc1` [Example 132] yielded an IC50 [1, 3] of 10 to 25 µM and an IC50 (DU145 (prostate cancer); [3]) of 10 to 25 µM.
For `COc1ccccc1C=C(SCc1ccccc1F)C(=O)c1ccc(Cl)cc1` [Example 133], the IC50 [1, 3] was 1 to 10 µM and the IC50 (DU145 (prostate cancer); [3]) was 10 to 25 µM.
Work on `Cc1ccsc1C=C(SCc1ccccc1F)C(=O)c1ccc(Cl)cc1` [Example 134] yielded an IC50 [1, 3] of 50 to 100 µM and an IC50 (DU145 (prostate cancer); [3]) of 50 to 100 µM.
